Drawing on ChEMBL document CHEMBL1126497, “A new type of cytotoxic annonaceous acetogenin: Giganin from goniothalamus giganteus” (1993), this text covers EC50 and LC50 for one compound.

Values after ≈ are worked out from the molar mass of the structure shown.

Common to all, as to assay type: functional
The subject of one assay is A549. Description: The compound was tested for cytotoxicity against A-549 cell in human lung carcinoma. Conditions: read-out: ED50 (the source's name).
Assay [1] in a line: The compound was tested for cytotoxicity against BST cell in brine shrimp. Conditions: Artemia.
For another assay, the system named is HT-29. Nature of the assay: The compound was tested for cytotoxicity against […] in human colon adenocarcinoma. Conditions: read-out: ED50 (the source's name).
The subject of another assay is MCF7. Nature of the assay: The compound was tested for cytotoxicity against MCF-7 cell in human breast carcinoma. Conditions: read-out: ED50 (the source's name).

Regarding `CCCCCCCCCCCCCCC(O)C(O)CC/C=C\CCC(O)CCCCCC(O)CC1=CC(C)OC1=O` (centres undefined), the EC50 in the assay with A549 is 0.0188 µg/mL (≈ 0.0324 µM); in the assay on HT-29, 0.00688 µg/mL (≈ 0.0118 µM); in the assay on MCF7, 1.03 µg/mL (≈ 1.77 µM). Further, in assay [1], the LC50 (commonly the concentration lethal to half of the exposed cells or organisms) is 890 µg/mL (≈ 1530 µM).
